pIC50: −log10 of the molar value.
What was measured:
Format in all cases: cell-based
MRGPRX2 [1] = biological target: T1, MRGPRX2 (Homo sapiens, UniProt Q96LB1); assay: MRGPRX2 β-Arrestin assay; design: host or cells: PathHunter CHO-K1; conditions: PathHunter CHO-K1 MRGPRX2 β-Arrestin cell line; agonist Cortistatin 14 0.25 μM
T1 sequence (Q96LB1 1-330): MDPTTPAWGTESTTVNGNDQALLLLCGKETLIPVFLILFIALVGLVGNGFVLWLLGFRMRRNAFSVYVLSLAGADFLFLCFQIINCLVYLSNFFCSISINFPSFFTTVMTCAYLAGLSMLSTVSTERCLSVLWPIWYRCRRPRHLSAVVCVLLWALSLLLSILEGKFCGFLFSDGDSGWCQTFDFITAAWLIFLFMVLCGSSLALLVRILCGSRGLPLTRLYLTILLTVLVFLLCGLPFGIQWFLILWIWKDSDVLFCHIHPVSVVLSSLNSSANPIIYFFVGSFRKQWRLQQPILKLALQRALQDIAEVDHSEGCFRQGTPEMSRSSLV
Text: Example C: MRGPRX2 β-Arrestin Assay
This assay measures compound inhibition of β-Arrestin recruitment, which is part of the G protein-independent pathway that results from the ligand-activated GPCR phosphorylation by specific GPCR kinases. The PathHunter CHO-K1 MRPGRX2 B-Arrestin Cell line stably expressing ProLink tagged MRGPRX2 and Enzyme Acceptor Tagged B-Arrestin was purchased from Eurofins DiscoverX, (Fremont, CA).
The cells were maintained in culture medium from the Europhins DiscoverX Cell Culture Kit-107 which includes FBS, hygromycin B and G418. For the assay, the cells were harvested and were resuspended with Cell Plating Reagent 2 (Eurofins DiscoverX). Cells were added 10000 cells in 25 µL/well to a 384-well black cell culture plate (Greiner VWR, Radnor, PA) which contained 125 nL/well of compound at a selected serially diluted concentration range or DMSO. The plate was incubated at 37° C. with 5% CO2 for 1 h. 2 μL/well of agonist Cortistatin 14 was diluted in Protein Dilution Buffer, (Eurofins DiscoverX) for a final concentration of 0.25 μM, was added and the plate was incubated at 37° C. with 5% CO2 for 90 min. 14 μL/well of Detection Reagent Mix (PathHunter Detection Kit, Eurofins DiscoverX) was added to the plates and further incubated for 1 h in the dark. Plates were read on the PHERAstar microplate reader (BMG Labtech Cary, NC) measuring luminescence 0.1 to 1 second per well. Data was normalized using DMSO only wells and wells with high concentration of reference antagonist as controls. Compound IC50 curves were globally fitted with 3- or 4-parameter Hill equation in a Genedata Screener (Genedata Basel, Switzerland).

MRGPRX2 [2] = biological target: T1, MRGPRX2; assay: MRGPRX2 IP1 HTRF assay; design: host or cells: CHO-K1; conditions: CHO-K1 cells stably expressing human MRGPRX2; IP1 accumulation, agonist Cortistatin 14 1 μM
Text: Example B: MRGPRX2 IP1 HTRF Assay
This assay measures compound inhibition of myo-Inositol 1 phosphate (IP1) accumulation in CHO-K1 cells. Chinese hamster ovary (CHO-K1) cells stably expressing human MRGPRX2 were purchased from GenScript (Piscataway, NJ).
For the HTRF IP1 determination, an IP-One GqKit (Perkin Elmer Cisbio, Waltham, MA), which includes all reagents and buffers in this protocol, was used. The cells were maintained in culture medium (Ham's F-12K) containing 10% (v/v) FBS, and 200 μg/mL Zeocin. For the assay, the cells were harvested and resuspended in culture medium with 2% FBS and without Zeocin, then were passed through a 40 μm filter. Cells were added at 20000 cells in a 5 μL/well to a 384-well white small volume cell culture plate (Greiner VWR, Radnor, PA) which contained 50 nL/well of test compound serially diluted at a selected concentration range in DMSO. 5 μL/well of prepared 2× Stimulation Buffer2 was then added to plates and was incubated at 37° C. with 5% CO2 for 1 h. 5 μL/well of agonist Cortistatin 14 (Bio-TechneR&D Systems, Minneapolis, MN) in 1× Stimulation Buffer 2, for a 1 μM final concentration, was then added to plates and incubated at 37° C. with 5% CO2 for 1 h. 6 μL/well of 1:20 diluted Detection Reagent Mix (d2 and Cryptate) was added to the plates and incubated for 1 h in the dark. Plates were read on the PHERAstar microplate reader (BMG Labtech Cary, NC) to determine the HTRF ratio of the acceptor and donor emission signals. The IP1 concentrations were calculated from a standard curve following the IP-One GQ kit instructions. Wells with DMSO only and wells with high concentration of reference antagonist were used as controls for normalization. Compound IC50 curves were globally fitted with 3- or 4-parameter Hill equation in a Genedata Screener (Genedata Basel, Switzerland).

MRGPRX2 [3] = biological target: T1, MRGPRX2; assay: MRGPRX2 FLIPR calcium mobilization assay; design: host or cells: CHO-K1; conditions: CHO-K1 cells stably expressing human MRGPRX2; Ca2+ release, agonist Cortistatin-14 at EC80
Protocol: Example A. MRGPRX2 FLIPR Calcium Mobilization Assay
Chinese hamster ovary (CHO-K1) cells stably expressing human MRGPRX2 were purchased from Genescript (Piscataway, NJ). The cells were maintained in culture medium (Ham's F-12K) containing 10% (v/v) FBS, 200 μg/mL Zeocin, 100 units/mL penicillin G and 100 μg/mL streptomycin (Life Technologies, Carlsbad, CA). For the assay, the cells were harvested and resuspended with culture medium without Zeocin before plating at 8000 cells per well in 20 μL in 384-well black clear bottom cell culture plates (VWR, Radnor, PA). After 24 h culture at 37° C. and 5% CO2, the cells were loaded with 20 μL/well of calcium dye (FLIPR Calcium 6 Assay Kit, Molecular Devices, San Jose, CA) diluted in loading buffer (1×Hank's Balanced Salt Solution (HBSS), 5 mM probenecid, 20 mM 4-(2-hydroxyethyl)-1-piperazineethanesulfonic acid (HEPES), pH 7.4, VWR, Radnor, PA) followed with 45 min incubation at 37° C. and 40 min at room temperature in the dark. Cells were then treated with the addition of 10 uL/well test compounds with a range of increasing concentrations diluted in the assay buffer (1×HBSS, 20 mM HEPES, pH 7.4, VWR, Radnor, PA) with FLIPR Penta (Molecular Devices. San Jose, CA) and incubated for 30 min. at room temperature. Ca^2+ release was measured with FLIPR Penta with 10 seconds basal fluorescence measurement, then 12.5 μL of 5× agonist Cortistatin-14 (Tocris, Minneapolis, MN) at final concentration corresponding to the EC80 were added followed with continued fluorescence signal monitoring for an additional 110 seconds. The base line adjusted (median of first 10s base line) max value of the Relative Fluorescence Unit (RFU) was plotted against compound concentrations. Wells with no compound were served as the positive controls, and wells with high concentration of reference antagonist were used as negative controls. IC50 curves were globally fitted with 3- or 4-parameter Hill equation in a Genedata Screener (Genedata Basel, Switzerland).

pIC50 (MRGPRX2 [1])	pIC50 (MRGPRX2 [2])	pIC50 (MRGPRX2 [3])	Structure (SMILES)
6.00 to 7.00	–	–	NC(=O)N1CC(CNc2cc(C(F)(F)F)nc3ccncc23)(c2ccc(F)cc2)C1 [Example 65, 3-(4-Fluorophenyl)-3-(((2-(trifluoromethyl)-1,6-naphthyridin-4-yl)amino)methyl)azetidine-1-carboxamide]
7.00 to 10.00	7.00 to 10.00	–	OC1(C(F)(F)F)CC(CNc2cc(C(F)(F)F)nc3ccc(Cl)cc23)(c2ccccc2)C1 (stereo not shown) [Example 66, 3-(((6-Chloro-2-(trifluoromethyl)quinolin-4-yl)amino)methyl)-3-phenyl-1-(trifluoromethyl)cyclobutan-1-ol]
7.00 to 10.00	7.00 to 10.00	–	O=C(O)C1CCC(CNc2cc(C(F)(F)F)nc3ccc(Cl)cc23)(c2ccccc2)CC1 (stereo not shown) [Example 67, 4-(((6-Chloro-2-(trifluoromethyl)quinolin-4-yl)amino)methyl)-4-phenylcyclohexane-1-carboxylic acid]
6.00 to 7.00	–	–	FC(F)(F)c1cc(NCC2(n3ccc(C(F)(F)F)n3)CNC2)c2cc(Cl)ccc2n1 [Example 68, 6-Chloro-2-(trifluoromethyl)-N-((3-(3-(trifluoromethyl)-1H-pyrazol-1-yl)azetidin-3-yl)methyl)quinolin-4-amine]
7.00 to 10.00	–	–	[2H]C([2H])([2H])NC(=O)N1CC(CNc2cc(C(F)(F)F)nc3ccc(Cl)cc23)(n2ncc3c2CCC3)C1 [Example 69, 3-(((6-Chloro-2-(trifluoromethyl)quinolin-4-yl)amino)methyl)-3-(5,6-dihydrocyclopenta[c]pyrazol-1(4H)-yl)-N-(methyl-d3)azetidine-1-carboxamide]
6.00 to 7.00	–	–	[2H]C([2H])([2H])NC(=O)N1CC(CNc2cc(C(F)(F)F)nc3ccc(Cl)cc23)(n2cc(CC#N)cn2)C1 [Example 71, 3-(((6-Chloro-2-(trifluoromethyl)quinolin-4-yl)amino)methyl)-3-(4-(cyanomethyl)-1H-pyrazol-1-yl)-N-(methyl-d3)azetidine-1-carboxamide]
7.00 to 10.00	–	–	Cn1nccc1NC1CC(CNc2cc(C(F)(F)F)nc3ccc(Cl)cc23)(c2ccc(F)cn2)C1 (stereo not shown) [Example 72, 6-Chloro-N-((1-(5-fluoropyridin-2-yl)-3-((1-methyl-1H-pyrazol-5-yl)amino)cyclobutyl)methyl)-2-(trifluoromethyl)quinolin-4-amine]
7.00 to 10.00	7.00 to 10.00	–	NS(=O)(=O)NC1CC(CNc2cc(C(F)(F)F)nc3ccc(Cl)cc23)(c2ccccc2)C1 (stereo not shown) [Example 73, N-((3-Aminosulfonylamino-1-phenylcyclobutyl)methyl)-6-chloro-2-(trifluoromethyl)quinolin-4-amine]
7.00 to 10.00	–	–	CN1CC(C(=O)NC2CC(CNc3cc(C(F)(F)F)nc4ccc(Cl)cc34)(c3ccccc3)C2)C1 (stereo not shown) [Example 75, N-(3-(((6-Chloro-2-(trifluoromethyl)quinolin-4-yl)amino)methyl)-3-phenylcyclobutyl)-1-methylazetidine-3-carboxamide]
7.00 to 10.00	–	–	CN1CCC(C(=O)NC2CC(CNc3cc(C(F)(F)F)nc4ccc(Cl)cc34)(c3ccccc3)C2)CC1 (stereo not shown) [Example 76, N-(3-(((6-Chloro-2-(trifluoromethyl)quinolin-4-yl)amino)methyl)-3-phenylcyclobutyl)-1-methylpiperidine-4-carboxamide]
7.00 to 10.00	–	–	O=C(NC1CC(CNc2cc(C(F)(F)F)nc3ccc(Cl)cc23)(c2ccccc2)C1)C(O)C(F)(F)F (stereo not shown) [Example 77, N-(3-(((6-Chloro-2-(trifluoromethyl)quinolin-4-yl)amino)methyl)-3-phenylcyclobutyl)-3,3,3-trifluoro-2-hydroxypropanamide]
7.00 to 10.00	–	–	COCCN1CC(CNc2cc(C(F)(F)F)nc3ccc(Cl)cc23)(c2ccc(F)cc2)C1 [Example 92, 6-Chloro-N-((3-(4-fluorophenyl)-1-(2-methoxyethyl)azetidin-3-yl)methyl)-2-(trifluoromethyl)quinolin-4-amine]
–	7.00 to 10.00	7.00 to 10.00	NS(=O)(=O)N1CCC(CNc2cc(C(F)(F)F)nc3ccc(Cl)cc23)(c2ccc(F)cn2)CC1 [Example 100, 4-(((6-Chloro-2-(trifluoromethyl)quinolin-4-yl)amino)methyl)-4-(5-fluoropyridin-2-yl) piperidine-1-sulfonamide]
–	7.00 to 10.00	7.00 to 10.00	N#Cc1cnn(C2(CNc3cc(C(F)(F)F)nc4ccc(Cl)cc34)CN(C(N)=O)C2)c1 [Example 101, 3-(((6-Chloro-2-(trifluoromethyl)quinolin-4-yl)amino)methyl)-3-(4-cyano-1H-pyrazol-1-yl)azetidine-1-carboxamide]
–	6.00 to 7.00	7.00 to 10.00	COc1cnn(C2(CNc3cc(C(F)(F)F)nc4ccc(Cl)cc34)CN(C(N)=O)C2)c1 [Example 102, 3-(((6-Chloro-2-(trifluoromethyl)quinolin-4-yl)amino)methyl)-3-(4-methoxy-1H-pyrazol-1-yl)azetidine-1-carboxamide]
–	7.00 to 10.00	7.00 to 10.00	Cc1ccn(C2(CNc3cc(C(F)(F)F)nc4ccc(Cl)cc34)CN(C(N)=O)C2)n1 [Example 103, 3-(((6-Chloro-2-(trifluoromethyl)quinolin-4-yl)amino)methyl)-3-(3-methyl-1H-pyrazol-1-yl)azetidine-1-carboxamide]
–	7.00 to 10.00	7.00 to 10.00	N#Cc1ccn(C2(CNc3cc(C(F)(F)F)nc4ccc(Cl)cc34)CN(C(N)=O)C2)n1 [Example 104, 3-(((6-Chloro-2-(trifluoromethyl)quinolin-4-yl)amino)methyl)-3-(3-cyano-1H-pyrazol-1-yl)azetidine-1-carboxamide]

Source: US20250084063A1 (Incyte Corporation, priority 2023, published 2025)
